Reference: PubChem BioAssay (NCI)
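All cell lines were grown in 96-well plates and treated with compound for 48 hours. Definition used: TGI = concentration required for complete inhibition of growth.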

Key:
Assay in all cases: growth of human tumour cells (NCI), 48 h
DU-145 prostate = test system: DU-145 prostate
IGROV1 ovarian = test system: IGROV1 ovarian
NCI-H226 lung = test system: NCI-H226 lung
OVCAR-5 ovarian = test system: OVCAR-5 ovarian
RPMI-8226 leukemia = test system: RPMI-8226 leukemia
SF-295 CNS = test system: SF-295 CNS
SK-MEL-28 melanoma = test system: SK-MEL-28 melanoma
SK-OV-3 ovarian = test system: SK-OV-3 ovarian
T-47D breast = test system: T-47D breast
UO-31 renal = test system: UO-31 renal

SMILES | TGI (DU-145 prostate) | TGI (IGROV1 ovarian) | TGI (NCI-H226 lung) | TGI (OVCAR-5 ovarian) | TGI (RPMI-8226 leukemia) | TGI (SF-295 CNS) | TGI (SK-MEL-28 melanoma) | TGI (SK-OV-3 ovarian) | TGI (T-47D breast) | TGI (UO-31 renal)
CCc1c(CN)c(CC)c(CNC2=NCCN2)c(CC)c1CNC1=NCCN1 | > 100 µM | > 100 µM | > 100 µM | > 100 µM | > 100 µM | > 100 µM | > 100 µM | > 100 µM | > 100 µM | > 100 µM
COc1cc(/C=C2/SC(c3ccccc3)N(Cc3ccccc3)C2=O)cc(OC)c1OC (stereo not drawn) | > 100 µM |  | > 100 µM | > 100 µM | 75.1 µM | > 100 µM | > 100 µM | > 100 µM | > 100 µM | > 100 µM
Cc1ccc(S(=O)(=O)N2CCN(S(=O)(=O)c3ccc(C)cc3)CCN(S(=O)(=O)c3ccc(C)cc3)Cc3cc(C#N)c(C#N)cc3CN(S(=O)(=O)c3ccc(C)cc3)CC2)cc1 | > 100 µM | > 100 µM | > 100 µM | > 100 µM | > 100 µM | > 100 µM | > 100 µM | > 100 µM | > 100 µM | > 100 µM
CC(C)(C)c1cc(-c2cc(C(C)(C)C)[nH]n2)n[nH]1 | > 100 µM | > 100 µM | > 100 µM | > 100 µM | > 100 µM | > 100 µM | > 100 µM | > 100 µM | > 100 µM | > 100 µM
CC(=O)N(C)c1ccc(N=CN(C)C)cc1 | > 100 µM | > 100 µM | > 100 µM | > 100 µM | > 100 µM | > 100 µM | > 100 µM | > 100 µM | > 100 µM | > 100 µM
O=C1c2cccnc2S(=O)(=O)N1c1ccc(Oc2ccccc2)cc1 | > 100 µM | > 100 µM | > 100 µM | > 100 µM | > 100 µM | > 100 µM | > 100 µM | > 100 µM | > 100 µM | > 100 µM
N#C[C@H](C(=O)c1ccccc1F)c1nc2ccccc2s1 | > 100 µM | > 100 µM | > 100 µM | > 100 µM | > 100 µM | 77.2 µM | > 100 µM | > 100 µM | > 100 µM | > 100 µM
COc1ccc(OC)c(CSc2ccc(OC)c(OC)c2)c1 | > 100 µM | > 100 µM | > 100 µM | > 100 µM | > 100 µM | > 100 µM | > 100 µM | > 100 µM | > 30.5 µM | > 100 µM
FC(F)(F)c1ccc(Cc2nc3cc4ccccc4cc3[nH]2)cc1 | > 100 µM | > 100 µM | > 100 µM | > 100 µM | > 100 µM | > 100 µM | > 100 µM |  | > 100 µM | > 100 µM
CC1(C)CC(O)C2=C(O1)C(=O)c1ncccc1C2=O (stereo not drawn) | 10 µM | 6.14 µM | 3.74 µM | 3.72 µM | > 22.6 µM | 3.35 µM | 3.16 µM | 27.4 µM | 5.91 µM | 4.34 µM
CCOc1ccc(N/C(=C(/C(Cl)=C(/Cl)Nc2ccccc2)[N+](=O)[O-])n2nnc3ccccc32)cc1 | > 100 µM |  | > 100 µM | > 100 µM | > 100 µM | > 100 µM | 54.5 µM | > 100 µM | > 100 µM | 54.5 µM
CC(=O)OC(CN1CCN(c2ccccn2)CC1)Cn1sc2nc(C)cc(C)c2c1=O (stereo not drawn) | 33.9 µM | 33.4 µM | > 100 µM | 31.5 µM | > 100 µM | > 100 µM | 42.2 µM | 35.9 µM | 76.8 µM | 30.2 µM
Cn1c(NNc2ccccc2)cc(=O)[nH]c1=O | > 100 µM | > 100 µM | > 100 µM | > 100 µM | > 100 µM | > 100 µM | > 100 µM | > 100 µM | > 100 µM | > 100 µM
Cc1cc(O)c2c(c1O)C(=O)c1cccc(O)c1C2=O | > 100 µM | > 100 µM | > 100 µM | > 100 µM | > 100 µM | > 100 µM | > 100 µM | > 100 µM | > 100 µM | > 100 µM
Nc1ccc2nc3c(nc2c1)C(=O)c1ccccc1-3 | > 100 µM | > 100 µM | > 100 µM | > 100 µM | > 100 µM | > 100 µM | > 100 µM | > 100 µM | > 100 µM | 
O=C(NC(=S)Nc1ccc2c(c1)Sc1ccccc1O2)c1ccc([N+](=O)[O-])cc1 | > 100 µM | > 100 µM | > 100 µM | > 100 µM | > 100 µM | > 100 µM | > 100 µM | > 100 µM | > 100 µM | > 100 µM
OCc1cc2c(ccc3sc4ccc5sc6ccc7ncccc7c6c5c4c32)s1 | 33.6 µM | 26.4 µM | > 100 µM | 33 µM | 96.2 µM | 27.7 µM | > 100 µM | 39.9 µM | 24.9 µM | 7.25 µM
CC(=O)OCC(OC(C)=O)C(OC(C)=O)C(/C=N\Nc1nc2ccccc2c(=O)[nH]1)=N\Nc1nc2ccccc2c(=O)[nH]1 (stereo not drawn) | > 100 µM | > 100 µM | > 100 µM | > 100 µM | > 100 µM | > 100 µM | > 100 µM | > 100 µM | > 100 µM | > 100 µM
NC(=O)C(=O)c1ncn(Cc2ccccc2)c1N | > 100 µM | > 100 µM | > 100 µM | > 100 µM | > 100 µM | > 100 µM | > 100 µM | > 100 µM | > 100 µM | 
COc1ccc(CC2C3=C(CCN2C(=O)C2CCC2)CC2(CC3)OCCO2)cc1O (stereo not drawn) | 61.6 µM | > 100 µM | > 100 µM | > 100 µM | > 100 µM | 45.5 µM | > 100 µM | 88.1 µM | > 100 µM | 1.49 µM
COc1cc(=O)c2c(O)c3c(O)oc(C)cc3c(OC)c2c1 | > 100 µM | 70.2 µM |  | 86.6 µM | 46.4 µM | 72.7 µM | 60 µM | 71.2 µM | 90.8 µM | > 100 µM
Cc1ccc(/C=N/n2c(Cc3ccccc3)n[nH]c2=O)cc1 | > 100 µM | > 100 µM | > 100 µM | > 100 µM | > 100 µM | > 100 µM | > 100 µM |  | > 100 µM | > 100 µM
